Test results: patent US20260116921A1, “PEPTIDE INHIBITORS OF INTERLEUKIN-23 RECEPTOR AND THEIR USE TO TREAT INFLAMMATORY DISEASES” (priority 2018, published 2026)
Numbered stars: 1 amine (or outer) side, 2 acyl side, 3 side chain; on linkers, the order of the positions; unused ones are H or OH. Bridge positions count the residues as written; N and C are the ends. Square brackets hold non-standard residues; d marks the D form. Peptide text beside a SMILES is read from it. Trp(7-Me) = Cc1cccc2c(C[C@H](N)C(=O)O)c[nH]c12; Abu(4-yl) = O=C([C@H](CC[*:3])N[*:1])[*:2]; 2Nal = N[C@@H](Cc1ccc2ccccc2c1)C(=O)O; AEF = NCCOc1ccc(C[C@H](N)C(=O)O)cc1; Cit = NC(=O)NCCC[C@H](N)C(=O)O; Pen = CC(C)(S)[C@H](N)C(=O)O; αMeK = C[C@](N)(CCCCN)C(=O)O; Aib = CC(C)(N)C(=O)O; βAla = NCCC(=O)O

Tests used:
[1] = target: T1, IL-23R (Homo sapiens, UniProt Q5VWK5); assay: DB cells IL23R pSTAT3 cell assay (pStat3 HTRF); format: cell-based; details: Table E3; DB cells, IL-23 0.5 nM, 30 minutes at 37° C.; read-out: pStat3 HTRF (IC50)
T1 sequence (Q5VWK5 24-629): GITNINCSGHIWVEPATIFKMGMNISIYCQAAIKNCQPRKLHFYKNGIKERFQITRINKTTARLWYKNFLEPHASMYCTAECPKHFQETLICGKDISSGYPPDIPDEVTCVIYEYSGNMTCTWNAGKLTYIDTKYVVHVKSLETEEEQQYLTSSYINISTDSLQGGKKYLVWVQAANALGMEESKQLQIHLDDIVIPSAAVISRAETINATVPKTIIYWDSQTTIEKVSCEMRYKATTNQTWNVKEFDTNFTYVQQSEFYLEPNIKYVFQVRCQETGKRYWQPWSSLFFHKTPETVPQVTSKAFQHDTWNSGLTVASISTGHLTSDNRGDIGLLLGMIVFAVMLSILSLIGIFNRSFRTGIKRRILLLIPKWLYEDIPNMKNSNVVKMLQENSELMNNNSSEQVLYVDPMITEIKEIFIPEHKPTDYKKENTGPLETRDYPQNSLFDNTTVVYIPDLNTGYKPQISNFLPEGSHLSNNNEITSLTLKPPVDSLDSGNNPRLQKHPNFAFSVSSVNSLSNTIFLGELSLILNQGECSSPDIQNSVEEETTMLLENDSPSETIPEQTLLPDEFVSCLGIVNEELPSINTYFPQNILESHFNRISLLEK
Method in brief: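 HTRF readout of lysate pSTAT3 (Tyr705) after two-plate processing. Peptide dilution series co-incubated with IL-23 (0.5 nM final) on 5×10E5 IL-23R-expressing DB cells per well, 30 min, 37 °C.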

[2] = 20% human fecal homogenate, 37° C., 20 μM
[3] = 20% cynomolgus monkey fecal homogenate, 37° C., 20 μM
[4] = SD rat plasma, 37° C., 20 μM
Description: Peptides of interest (20 μM) were incubated with pre-warmed rat plasma (SD rat, mixed gender pooled, EDTA, filtered through 0.22 μm, BioreclamationIVT) at 37° C. […] Quenched samples were stored at 4° C. until the end of the experiment and centrifuged at 4,000 rpm for 10 minutes. The supernatant were diluted 1:1 with deionized water and analyzed using LC-MS. Percentage remaining at each time point was calculated based on the peak area ratio (analyte over internal standard) relative to the initial level at time zero. Half-lives were calculated by fitting to a first-order exponential decay equation using GraphPad.

[5] = in vitro; format: in vitro ADME; design: half-life: dose or concentration left out as unconfirmed; details: pH 6.8, 37° C., § matrix is 100 fold dilution of standard SIF concentration; for SIF t½: simulated intestinal fluid, pancreatin; for half-life: simulated intestinal fluid (SIF) with pancreatin, read-out: SIF t½ (converted)
Description: SIF was prepared by adding 6.8 g of monobasic potassium phosphate and 10.0 g of pancreatin to 1.0 L of water. After dissolution, the pH was adjusted to 6.8 using NaOH. DMSO stocks (2 mM) were first prepared for the test compounds. Aliquots of the DMSO solutions were dosed into 6 individual tubes, each containing 0.5 mL of SIF, which is pre-warmed to 37° C. The final test compound concentration was 20 M. The vials were kept in a benchtop Thermomixer® for the duration of the experiment. At each timepoint (0, 5, 10, 20, 40, 60, or 360 minutes or 24 hours), 1.0 mL of acetonitrile containing 1% formic acid was added to one vial to terminate the reaction. Samples were stored at 4° C. until the end of the experiment. After the final timepoint is sampled, the tubes were mixed and then centrifuged at 3,000 rpm for 10 minutes. Aliquots of the supernatant were removed, diluted 1:1 into distilled water containing internal standard, and analyzed by LCMS/MS. Percent remaining at each timepoint was calculated based on the peak area response ratio of test to compound to internal standard. Time 0 was set to 100%, and all later timepoints were calculated relative to time 0. Half-lives were calculated by fitting to a first-order exponential decay equation using Graphpad.

| SMILES | IC50 [1] [nM] | t½: Human Feces anaerobic [2] [h] | t½: Monkey Feces anaerobic [3] [h] | t½: Rat Plasma EDTA [4] [h] | SIF t½ [5] [h] | half-life [5] [h] |
| --- | --- | --- | --- | --- | --- | --- |
| CC(=O)NCCCC[C@H](NC(=O)[C@](C)(CC(C)C)NC(=O)[C@H](Cc1ccc2ccccc2c1)NC(=O)[C@H](Cc1ccc(OCCN)cc1)NC(=O)[C@H]1NC(=O)[C@H](CCC(N)=O)NC(=O)[C@H](Cc2c[nH]c3c(C)cccc23)NC(=O)[C@H]([C@@H](C)O)NC(=O)[C@H](CC(N)=O)NC(=O)[C@@H](NC(C)=O)C(C)(C)SSC1(C)C)C(=O)N1CCC[C@H]1C(=O)NCCC(N)=O [compound 211] | > 100 | 10 | >24 |  |  |  |
| CC(=O)NCCCC[C@H](NC(=O)[C@](C)(CC(C)C)NC(=O)[C@H](Cc1ccc2ccccc2c1)NC(=O)[C@H](Cc1ccc(OCCN)cc1)NC(=O)[C@H]1NC(=O)[C@H](CCC(N)=O)NC(=O)[C@H](Cc2c[nH]c3c(C)cccc23)NC(=O)[C@H]([C@@H](C)O)NC(=O)[C@H](CC(N)=O)NC(=O)[C@@H](NC(C)=O)C(C)(C)SSC1(C)C)C(=O)N[C@@H](C(=O)NCCC(N)=O)[C@H](C)O [compound 218] |  |  |  | 1 |  |  |
| CC(=O)NCCCC[C@H](NC(=O)[C@](C)(CCCCN)NC(=O)[C@H](Cc1ccc2ccccc2c1)NC(=O)[C@H](Cc1ccc(OCCN)cc1)NC(=O)[C@H]1NC(=O)[C@H](CCC(N)=O)NC(=O)[C@H](Cc2c[nH]c3c(C)cccc23)NC(=O)[C@H]([C@@H](C)O)NC(=O)C(C)(C)NC(=O)[C@@H](NC(C)=O)C(C)(C)SSC1(C)C)C(=O)N[C@@H](CC(N)=O)C(=O)NCCC(N)=O [compound 240] (Ac-[Pen][Aib]T[Trp(7-Me)]Q[Pen][AEF][2Nal][αMeK]K(Ac)N[βAla]-NH2; disulfide 1-6) | 10 to 100 | 4 | 3 | 8 |  |  |
| CC(=O)NCCCC[C@@H]1NC(=O)[C@H](Cc2c[nH]c3c(C)cccc23)NC(=O)[C@H]([C@@H](C)O)NC(=O)[C@H](CC(N)=O)NC(=O)[C@@H](NC(C)=O)C(C)(C)SSC(C)(C)[C@@H](C(=O)N[C@@H](Cc2ccc(OCCN)cc2)C(=O)N[C@@H](Cc2ccc3ccccc3c2)C(=O)N[C@@](C)(CCCCN)C(=O)N[C@@H](CCCCNC(C)=O)C(=O)N[C@@H](CC(N)=O)C(=O)N[C@H](Cc2ccccc2)C(N)=O)NC1=O [compound 258] |  | >24 | >24 | >24 | 14 |  |
| CC(=O)NCCCC[C@H](NC(=O)[C@](C)(CCCCN)NC(=O)[C@H](Cc1ccc2ccccc2c1)NC(=O)[C@H](Cc1ccc(OCCN)cc1)NC(=O)[C@H]1NC(=O)[C@H](CCC(N)=O)NC(=O)[C@H](Cc2c[nH]c3c(C)cccc23)NC(=O)[C@H]([C@@H](C)O)NC(=O)[C@H](CC(N)=O)NC(=O)[C@@H](NC(C)=O)C(C)(C)SSC1(C)C)C(=O)N[C@@H](CC(N)=O)C(=O)NCCC(N)=O [compound 267] | < 1 |  | 4 |  |  |  |
| CC(=O)NCCCC[C@H](NC(=O)C1(NC(=O)[C@H](Cc2ccc3ccccc3c2)NC(=O)[C@H](Cc2ccc(OCCN)cc2)NC(=O)[C@H]2NC(=O)[C@H](CCC(N)=O)NC(=O)[C@H](Cc3c[nH]c4c(C)cccc34)NC(=O)[C@H]([C@@H](C)O)NC(=O)[C@H](CC(N)=O)NC(=O)[C@@H](NC(C)=O)C(C)(C)SSC2(C)C)CCNCC1)C(=O)N[C@@H](CC(N)=O)C(=O)NCCC(N)=O [compound 275] |  |  | 8 |  |  |  |
| CC(=O)N[C@@H]1C(=O)N[C@@H](CC(N)=O)C(=O)N[C@@H]([C@@H](C)O)C(=O)N[C@@H](Cc2c[nH]c3c(C)cccc23)C(=O)N[C@@H](CCCNC(N)=O)C(=O)N[C@H](C(=O)N[C@@H](Cc2ccc(OCCN)cc2)C(=O)N[C@@H](Cc2ccc3ccccc3c2)C(=O)N[C@@](C)(CCCCN)C(=O)N[C@@H](CCCNC(N)=O)C(=O)NCCC(=O)NCCC(N)=O)C(C)(C)SSC1(C)C [compound 281] (Ac-[Pen]NT[Trp(7-Me)][Cit][Pen][AEF][2Nal][αMeK][Cit][βAla][βAla]-NH2; disulfide 1-6) | 10 to 100 | >24 | >24 | >24 | 14 |  |
| CC(=O)NCCCC[C@H](NC(=O)[C@](C)(CCCCN)NC(=O)[C@H](Cc1ccc2ccccc2c1)NC(=O)[C@H](Cc1ccc(OCCN)cc1)NC(=O)[C@H]1NC(=O)[C@H](CCCCNC(=O)C(C)(C)N)NC(=O)[C@H](Cc2c[nH]c3c(C)cccc23)NC(=O)[C@H]([C@@H](C)O)NC(=O)[C@H](CC(N)=O)NC(=O)[C@@H](NC(C)=O)C(C)(C)SSC1(C)C)C(=O)N[C@@H](CC(N)=O)C(=O)N[C@H](CC(C)C)C(N)=O [compound 322] |  | >24 | >24 |  |  | 1 |
| CC(=O)NCCCC[C@@H]1NC(=O)[C@H](Cc2c[nH]c3c(C)cccc23)NC(=O)[C@H]([C@@H](C)O)NC(=O)[C@H](CCC(N)=O)NC(=O)[C@@H](NC(=O)[C@@H](CCCNC(=N)N)NC(C)=O)CCSC[C@@H](C(=O)N[C@@H](Cc2ccc(OCCN)cc2)C(=O)N[C@@H](Cc2ccc3ccccc3c2)C(=O)N[C@@](C)(CCCCN)C(=O)N[C@@H](CCCCNC(C)=O)C(=O)N[C@@H](CC(N)=O)C(=O)N[C@H](CC(C)C)C(N)=O)NC1=O [compound 325] (Ac-[dR][Abu(4-yl)]QT[Trp(7-Me)]K(Ac)C[AEF][2Nal][αMeK]K(Ac)N[dL]-NH2; thioether 2-7) |  | >24 | 22 |  |  | 2 |
